Laboratory results reported in PubChem BioAssay AID1259407 (Chemical Carcinogenesis Research Information System (CCRIS), 2018).
Activity calls are given as the source filed them. How the calls were made is not given here.

Test system: CCRIS mutagenicity, Ames/micronucleus/aberration tests
Test: CCRIS mutagenicity studies
[1] = Test System: AMES SALMONELLA TYPHIMURIUM, Strain/Indicator: TA98, Metabolic Activation: NONE, Method: STANDARD PLATE
[2] = Test System: AMES SALMONELLA TYPHIMURIUM, Strain/Indicator: TA98, Metabolic Activation: RAT, LIVER, S-9, AROCLOR 1254, Method: STANDARD PLATE
[3] = Test System: AMES SALMONELLA TYPHIMURIUM, Strain/Indicator: TA100, Metabolic Activation: NONE, Method: STANDARD PLATE
[4] = Test System: AMES SALMONELLA TYPHIMURIUM, Strain/Indicator: TA100, Metabolic Activation: RAT, LIVER, S-9, AROCLOR 1254, Method: STANDARD PLATE
[5] = Test System: AMES SALMONELLA TYPHIMURIUM, Strain/Indicator: TA1535, Metabolic Activation: NONE, Method: STANDARD PLATE
[6] = Test System: AMES SALMONELLA TYPHIMURIUM, Strain/Indicator: TA1535, Metabolic Activation: RAT, LIVER, S-9, AROCLOR 1254, Method: STANDARD PLATE
[7] = Test System: AMES SALMONELLA TYPHIMURIUM, Strain/Indicator: TA1537, Metabolic Activation: NONE, Method: STANDARD PLATE
[8] = Test System: AMES SALMONELLA TYPHIMURIUM, Strain/Indicator: TA1537, Metabolic Activation: RAT, LIVER, S-9, AROCLOR 1254, Method: STANDARD PLATE
[9] = Test System: AMES SALMONELLA TYPHIMURIUM, Strain/Indicator: TA1538, Metabolic Activation: NONE, Method: STANDARD PLATE
[10] = Test System: AMES SALMONELLA TYPHIMURIUM, Strain/Indicator: TA1538, Metabolic Activation: RAT, LIVER, S-9, AROCLOR 1254, Method: STANDARD PLATE

CN1C(=O)C(O)CC1c1cccnc1 (stereo not drawn)
mutagenic call (Test System: AMES SALMONELLA TYPHIMURIUM, Strain/Indicator: TA98, Metabolic Activation: NONE, Method: PREINCUBATION): inactive; negative
mutagenic call (Test System: AMES SALMONELLA TYPHIMURIUM, Strain/Indicator: TA98, Metabolic Activation: RAT, LIVER, S-9, AROCLOR 1254 (5%), Method: PREINCUBATION): inactive; negative
mutagenic call (Test System: AMES SALMONELLA TYPHIMURIUM, Strain/Indicator: TA100, Metabolic Activation: NONE, Method: PREINCUBATION): inactive; negative
mutagenic call (Test System: AMES SALMONELLA TYPHIMURIUM, Strain/Indicator: TA100, Metabolic Activation: RAT, LIVER, S-9, AROCLOR 1254 (5%), Method: PREINCUBATION): inactive; negative
mutagenic call (Test System: AMES SALMONELLA TYPHIMURIUM, Strain/Indicator: TA1535, Metabolic Activation: NONE, Method: PREINCUBATION): inactive; negative
mutagenic call (Test System: AMES SALMONELLA TYPHIMURIUM, Strain/Indicator: TA1535, Metabolic Activation: RAT, LIVER, S-9, AROCLOR 1254 (5%), Method: PREINCUBATION): inactive; negative
mutagenic call (Test System: AMES SALMONELLA TYPHIMURIUM, Strain/Indicator: TA1537, Metabolic Activation: NONE, Method: PREINCUBATION): inactive; negative
mutagenic call (Test System: AMES SALMONELLA TYPHIMURIUM, Strain/Indicator: TA1537, Metabolic Activation: RAT, LIVER, S-9, AROCLOR 1254 (5%), Method: PREINCUBATION): inactive; negative
mutagenic call (Test System: AMES SALMONELLA TYPHIMURIUM, Strain/Indicator: TA1538, Metabolic Activation: NONE, Method: PREINCUBATION): inactive; negative
mutagenic call (Test System: AMES SALMONELLA TYPHIMURIUM, Strain/Indicator: TA1538, Metabolic Activation: RAT, LIVER, S-9, AROCLOR 1254 (5%), Method: PREINCUBATION): inactive; negative

NCCCC[C@H](N[C@@H](CCc1ccccc1)C(=O)O)C(=O)N1CCC[C@H]1C(=O)O
mutagenic call [1]: inactive; negative
mutagenic call [2]: inactive; negative
mutagenic call [3]: inactive; negative
mutagenic call [4]: inactive; negative
mutagenic call [5]: inactive; negative
mutagenic call [6]: inactive; negative
mutagenic call [7]: inactive; negative
mutagenic call [8]: inactive; negative
mutagenic call [9]: inactive; negative
mutagenic call [10]: inactive; negative
mutagenic call (Test System: E. COLI, Strain/Indicator: WP2, Metabolic Activation: NONE, Method: STANDARD PLATE): inactive; negative
mutagenic call (Test System: E. COLI, Strain/Indicator: WP2, Metabolic Activation: RAT, LIVER, S-9, AROCLOR 1254, Method: STANDARD PLATE): inactive; negative
mutagenic call (Test System: E. COLI, Strain/Indicator: WP2 UVRA, Metabolic Activation: NONE, Method: STANDARD PLATE): inactive; negative
mutagenic call (Test System: E. COLI, Strain/Indicator: WP2 UVRA, Metabolic Activation: RAT, LIVER, S-9, AROCLOR 1254, Method: STANDARD PLATE): inactive; negative

BrCc1c2ccccc2cc2ccc3ccccc3c12
mutagenic call [1]: active; positive
mutagenic call [3]: active; positive

CC1C(C)(C)C2=C(C(=O)CCC2)C1(C)C (stereo not drawn)
mutagenic call (Test System: AMES SALMONELLA TYPHIMURIUM, Strain/Indicator: TA97, Metabolic Activation: NONE, Method: STANDARD PLATE): inactive; negative
mutagenic call (Test System: AMES SALMONELLA TYPHIMURIUM, Strain/Indicator: TA97, Metabolic Activation: RAT LIVER S-9, AROCLOR 1254, Method: STANDARD PLATE): inactive; negative
mutagenic call [1]: inactive; negative
mutagenic call (Test System: AMES SALMONELLA TYPHIMURIUM, Strain/Indicator: TA98, Metabolic Activation: RAT LIVER S-9, AROCLOR 1254, Method: STANDARD PLATE): inactive; negative
mutagenic call [3]: inactive; negative
mutagenic call (Test System: AMES SALMONELLA TYPHIMURIUM, Strain/Indicator: TA100, Metabolic Activation: RAT LIVER S-9, AROCLOR 1254, Method: STANDARD PLATE): inactive; negative
mutagenic call (Test System: AMES SALMONELLA TYPHIMURIUM, Strain/Indicator: TA102, Metabolic Activation: NONE, Method: STANDARD PLATE): inactive; negative
mutagenic call (Test System: AMES SALMONELLA TYPHIMURIUM, Strain/Indicator: TA102, Metabolic Activation: RAT LIVER S-9, AROCLOR 1254, Method: STANDARD PLATE): inactive; negative

OCl
mutagenic call (End Point: IN VIVO MICRONUCLEUS, Test System: BONE MARROW POLYCHROMATIC ERYTHROCYTES, Species: MOUSE, Strain/Sex: DDY/MALE, Route: IP): inactive; negative
mutagenic call (Test System: AMES SALMONELLA TYPHIMURIUM, Strain/Indicator: TA97, Metabolic Activation: NONE, Method: PREINCUBATION): inactive; negative
mutagenic call (Test System: AMES SALMONELLA TYPHIMURIUM, Strain/Indicator: TA97, Metabolic Activation: RAT, LIVER, S-9, AROCLOR 1254, Method: PREINCUBATION): inactive; negative
mutagenic call (Test System: AMES SALMONELLA TYPHIMURIUM, Strain/Indicator: TA98, Metabolic Activation: NONE, Method: FLUCTUATION TEST): inactive; negative
mutagenic call [1]: inactive; negative
mutagenic call [2]: inactive; negative
mutagenic call (Test System: AMES SALMONELLA TYPHIMURIUM, Strain/Indicator: TA100, Metabolic Activation: NONE, Method: FLUCTUATION TEST): inactive; negative
mutagenic call [3]: inactive; negative
mutagenic call [4]: inactive; negative
mutagenic call (Test System: AMES SALMONELLA TYPHIMURIUM, Strain/Indicator: TA102, Metabolic Activation: NONE, Method: FLUCTUATION TEST): inactive; negative
mutagenic call (Test System: AMES SALMONELLA TYPHIMURIUM, Strain/Indicator: TA102, Metabolic Activation: NONE, Method: PREINCUBATION): inactive; negative
mutagenic call (Test System: AMES SALMONELLA TYPHIMURIUM, Strain/Indicator: TA102, Metabolic Activation: RAT, LIVER, S-9, AROCLOR 1254, Method: PREINCUBATION): inactive; negative
mutagenic call [5]: inactive; negative
mutagenic call [6]: inactive; negative
mutagenic call [7]: inactive; negative
mutagenic call [8]: inactive; negative
mutagenic call [9]: inactive; negative
mutagenic call [10]: inactive; negative
mutagenic call (Test System: CHINESE HAMSTER OVARY, Strain/Indicator: CHO-K1-BH4 (HGPRT), Metabolic Activation: NONE, Method: STANDARD PLATE): inactive; negative
mutagenic call (Test System: UDS RODENT HEPATOCYTES, Strain/Indicator: THY INCORP (NON-S-PHASE), Metabolic Activation: NONE, Method: LIQUID SCINTILLATION COUNTING): inactive; negative

NC(=O)c1cc[n+](COC[n+]2ccccc2/C=N/O)cc1
mutagenic call [1]: inactive; negative
mutagenic call (Test System: AMES SALMONELLA TYPHIMURIUM, Strain/Indicator: TA98, Metabolic Activation: RAT, LIVER, S-9, Method: STANDARD PLATE): inactive; negative
mutagenic call [3]: inactive; negative
mutagenic call (Test System: AMES SALMONELLA TYPHIMURIUM, Strain/Indicator: TA100, Metabolic Activation: RAT, LIVER, S-9, Method: STANDARD PLATE): inactive; negative
mutagenic call [5]: inactive; negative
mutagenic call (Test System: AMES SALMONELLA TYPHIMURIUM, Strain/Indicator: TA1535, Metabolic Activation: RAT, LIVER, S-9, Method: STANDARD PLATE): inactive; negative
mutagenic call [7]: inactive; negative
mutagenic call (Test System: AMES SALMONELLA TYPHIMURIUM, Strain/Indicator: TA1537, Metabolic Activation: RAT, LIVER, S-9, Method: STANDARD PLATE): inactive; negative
mutagenic call [9]: inactive; negative
mutagenic call (Test System: AMES SALMONELLA TYPHIMURIUM, Strain/Indicator: TA1538, Metabolic Activation: RAT, LIVER, S-9, Method: STANDARD PLATE): inactive; negative
mutagenic call (Test System: CHINESE HAMSTER OVARY, Strain/Indicator: CHO-K1-BH4 (HGPRT)/6-THIOGUANINE, Metabolic Activation: NONE): inactive; negative
mutagenic call (Test System: CHINESE HAMSTER OVARY, Strain/Indicator: CHO-K1-BH4 (HGPRT)/6-THIOGUANINE, Metabolic Activation: RAT, LIVER, S-9, Method: SUSPENSION/PLATE): inactive; negative
mutagenic call (Test System: MOUSE LYMPHOMA, Strain/Indicator: L5178Y (TK+/TK-), Metabolic Activation: NONE, Method: SUSPENSION/PLATE): inactive; negative

COc1nsc2ccc([N+](=O)[O-])cc12
mutagenic call [3]: active; positive
